# Residues, ends and D or L forms follow the SMILES beside them.
# Tests used:
# [1] = system: Human red blood corpuscles; test: Cytotoxicity: hemolysis capacity; assay type: cell-based; conditions: up to 12.5 μM
# Protocol: Human red blood corpuscles were diluted with PBS (pH 7.0) to the concentration of 8%, and loaded into each wells of 96-well plate. Synthetic peptide of the present invention was half-fold diluted consecutively from 12.5 μM/well, followed by reacting with the red blood corpuscles for 1 hour at 37° C. After centrifugation, OD414 was measured to determine the amount of hemoglobin in the supernatant. At this time, CA-MA peptide was used as a comparative group and melittin was used as a positive control. In order to investigate the level of hemolysis, 1% triton X-100 was added, and then OD was measured. Hemolysis capacity of triton X-100 was regarded as 100%, with which hemolysis capacity of the synthetic peptide was compared and calculated according to the below <Mathematical Formula 1>.
# % hemolysis=(OD A−OD B/OD C−OD B)×100
# Pseudomonas aeruginosa [2] = test: Visualization of anti-bacterial activity, colonies on plate; assay type: cell-based; conditions: 4×10^5 P. aeruginosa cells, 4 μM peptide, 2 hours at 37° C.; FIG. 2
# Protocol: (§1) In order to visualize the antibiotic activity of the synthetic peptide of the present invention on the plate, Pseudomonas aeruginosa and Bacillus subtilis were inoculated in LB medium (1% bacto trypton, 0.5% yeast extract, 1% sodium chloride), and cultured to mid-log phase. Particularly, 4×10^5 P. aeruginosa cells were loaded into the medium, and 4 μM of synthetic peptide was added thereto. 4×10^5 B. subtilis cells were also loaded into the medium, and 1 μM of synthetic peptide was added thereto. After culturing for 2 hours at 37° C., the culture fluid was smeared on LB plate to visualize the cells. At this time, CA-MA peptide was used as a comparative group.
# Bacillus subtilis [3] = test: Anti-bacterial activity observation with SEM; assay type: cell-based; conditions: 0.78 μM, 30 minutes at 37° C.; FIG. 3
# Protocol: (§2) Bacillus subtilis (Gram-positive) and Pseudomonas aeruginosa (Gram-negative) cells were cultured in LB medium (1% bacto trypton, 0.5% bacto yeast extract, 1% sodium chloride) to mid-log phase, and the cells were diluted with 10 mM of Na-phosphate buffer containing 100 mM of NaCl) at the concentration of 10^8 cells/ml. Synthetic peptide of the present invention and CA-MA peptide (as a comparative group) were added into the diluted cell culture medium (final conc. 0.78 μM in B. subtilis culture, 1.56 μM in P. aeruginosa culture), followed by further culturing for 30 minutes at 37° C. 0.2 M Na-phosphate buffer containing 5% glutaraldehyde was added into the medium, and the cells were fixed for 2 hours at 4° C. The cells were filtered with isopore filters (0.2 μm pore size, Millipore, Bedford, Mass., USA), and washed with 0.1 M Na-cacodylate buffer (pH 7.4). The filters were treated with 1% osmium tertoxide and dehydrated.
# Pseudomonas aeruginosa [4] = test: Anti-bacterial activity observation with SEM; assay type: cell-based; conditions: 1.56 μM, 30 minutes at 37° C.; FIG. 4
# Protocol: as §2
# Bacillus subtilis [5] = test: Membrane dynamic condition, DPH fluorescence anisotropy; assay type: cell-based; conditions: 6.25 μM˜0.097 μM, 2 hours at 37° C.; FIG. 5A
# Protocol: (§3) The present inventors performed the below experiment in order to investigate the dynamic condition of lipid membrane of bacteria cells treated with synthetic peptide of the present invention. Particularly, B. subtilis (Gram-positive) and P. aeruginosa (Gram-negative) were cultured to mid-log phase in LB medium (1% bacto trypton, 0.5% bacto yeast extract, 1% sodium chloride). And the antibiotic peptide of the present invention and CA-MA peptide (as a comparative group) were treated (6.25 μM˜0.097 μM, half-fold diluted) thereto. Each strains were further cultured for 2 hours at 37° C. After fixing with 0.25% formaldehyde for 1 hour at room temperature, cultured cells were washed with PBS (pH 7.4), and then frozen in liquid nitrogen. For the fluorescent labeling, PBS (pH 7.4) was added until OD450 reached to 0.25, and DPH (1,6-diphenyl-1,3,5-hexatriene) dissolved in tetrahydrofuran was added (final conc. […]), followed by further culturing for 45 minutes at 37° C. Steady-state fluorescence anisotropy was determined by measuring the strength of fluorescence with spectrofluorometer (HITACHI F-3010, Tokyo, Japan) at 330 nm and 450 nm.
# Pseudomonas aeruginosa [6] = test: as above; assay type: cell-based; conditions: 6.25 μM˜0.097 μM, 2 hours at 37° C.; FIG. 5B
# Protocol: as §3
# [7] = system: Bacillus subtilis (KCTC 1918); test: MIC measurement, anti-bacterial activity; assay type: cell-based; conditions: summary of the strains of Table 1
# Protocol: In order to measure the anti-bacterial activity of the peptide synthesized in Example 1, minimum inhibitory concentration (MIC) of the peptide was measured.
# The present inventors used Bacillus subtilis (KCTC 1918) and Staphylococus epidermidis (KCTC 1917) as Gram-positive bacteria, and Pseudomonas aeruginosa (KCTC 1637) and Salmonella typhimurium (KCTC 1926) as Gram-negative bacteria for this experiment. All the bacteria used in this experiment were given by Korea Research Institute of Bioscience and Biotechnology (KRIBB). Each bacterial strain was cultured in LB medium(1% bacto-trypton, 0.5% bacto-yeast extract, 1% sodium chloride) to the mid-log phase, and diluted with 1% bacto-peptone medium at the concentration of 1×10^4 cells/100 μl. The diluted bacteria were loaded into micro-titrate plate. Antibiotic peptide synthesized in Example 1 and CA-MA peptide (as a comparative group) were half-fold diluted consecutively from 25 μM/well, and added into the plate for culture at 37° C. for 6 hours. Finally, the MIC of each strain was determined by observing OD620 with a micro-titrate plate reader.
# [8] = Acute toxicity test in rat via non-oral administration; assay type: in vivo; conditions: SD, in vivo, 1 g/kg/15 ml, intravenous, read-out: level up to which no toxic change is caused
# Protocol: (§4) The following experiments were performed to see if the synthetic peptide of the present invention has acute toxicity in rat.
# (§5) 6-week old SPF SD line rats were used in the tests for acute toxicity. Synthetic peptide of the present invention represented by the SEQ. ID. NO: 2 was suspended in 0.5% methyl cellulose solution and intravenous injected once to 2 rats per group at the dosage of 1 g/kg/15 ml. Death, clinical symptoms, and weight change in rats were observed, hematological tests and biochemical tests of blood were performed, and any abnormal signs in the gastrointestinal organs of chest and abdomen were checked with eyes during autopsy.
# SPF SD line rats = test: as above; assay type: in vivo; conditions: single intravenous injection, 1 g/kg/15 ml in 0.5% methyl cellulose
# Protocol: as §4, §5
# [9] = system: SNU 601 (a human stomach cancer cell line); test: Anticancer activity, MTT assay; assay type: cell-based; conditions: for anti-cancer activity: SNU 601
# Protocol: (§6) In order to measure the anticancer activity of the synthetic peptide of the present invention, the present inventors performed MTT assay with Calu-6 (a human lung cancer cell line), SNU 601 (a human stomach cancer cell line) and Jurkat (a T-cell lymphoma cell line) cells. Firstly, 90 μl of each cell line (2×10^5 cells/ml) was loaded into each well of 96-well plate. At this time, only medium contained wells were used as a control. After shaking well, the cells were cultured in CO2 incubator for 3 days. Formazan produced by mitochondria enzymes of living cells was dissolved in 100 μl of 0.04 N HCl-isopropanol, and finally, OD540 was measured by using ELISA reader. The anti-cancer activity of antibiotic peptide of the present invention was represented by a percentage (OD of synthetic peptide treated well/OD of control×100).
# [10] = system: Calu-6 (a human lung cancer cell line); test: Anticancer activity, MTT assay; assay type: cell-based; conditions: for anti-cancer activity: Calu-6
# Protocol: as §6
# [11] = system: Jurkat (a T-cell lymphoma cell line); test: Anticancer activity, MTT assay; assay type: cell-based
# Protocol: as §6
# [12] = system: Candida albicans (TIMM 1768); test: Anti-fungal activity, MIC by MTT assay; assay type: cell-based; conditions: summary of the fungi of Table 2
# Protocol: In order to measure the anti-fungal activity of the synthetic peptide of the present invention, the present inventors performed MTT assay with Candida albicans (TIMM 1768) and Tricosphoron beigelil (KCTC 7707). Particularly, PDB medium (20% potato infusion frum, 2% bacto dextrose) containing various fungi was loaded into the wells (100 μl/well) of 96-well plate. Antibiotic peptides of the present invention and CA-MA peptide (as a comparative group) were half-fold diluted consecutively, and added into the plate for further culturing. 10 μl of MTT solution ([…], 5 mg/ml) was added into each well followed by further culturing for 5-6 hours. Formazan produced by mitochondria enzymes of living cells was dissolved in 100 μl of 0.04 N HCl-isopropanol. Finally, OD570 was measured by using ELISA reader to determine the degree of MIC.
# Bacillus subtilis [13] = test: Visualization of anti-bacterial activity, colonies on LB plate; assay type: cell-based; conditions: 4×10^5 B. subtilis cells, 1 μM peptide, 2 hours at 37° C.; FIG. 1
# Protocol: as §1
compound,measurement,setting,value
CC[C@H](C)[C@H](NC(=O)CNC(=O)[C@@H](NC(=O)[C@H](CCCCN)NC(=O)[C@H](CCCCN)NC(=O)[C@H](Cc1ccccc1)NC(=O)[C@H](CC(C)C)NC(=O)[C@H](CCCCN)NC(=O)[C@H](Cc1c[nH]c2ccccc12)NC(=O)[C@@H](N)CCCCN)[C@@H](C)CC)C(=O)NCC(=O)N[C@@H](CCCCN)C(=O)N[C@@H](Cc1ccccc1)C(=O)N[C@@H](CC(C)C)C(=O)N[C@@H](Cc1c[nH]cn1)C(=O)N[C@@H](CO)C(=O)N[C@@H](C)C(=O)N[C@@H](CCCCN)C(=O)N[C@@H](CCCCN)C(=O)N[C@@H](Cc1ccccc1)C(=O)O [CA-MA] (H-KWKLFKKIGIGKFLHSAKKF-OH),"cytotoxicity (hemolysis), in words",[1],did not show any cytotoxicity
"CC[C@H](C)[C@H](NC(=O)CN)C(=O)NCC(=O)N[C@@H](C)C(=O)N[C@H](C(=O)N[C@@H](CC(C)C)C(=O)N[C@@H](CCCCN)C(=O)N[C@H](C(=O)N[C@@H](CC(C)C)C(=O)N[C@H](C(=O)N[C@H](C(=O)NCC(=O)N[C@@H](CC(C)C)C(=O)N1CCC[C@H]1C(=O)N[C@@H](C)C(=O)N[C@@H](CC(C)C)C(=O)N[C@H](C(=O)N[C@@H](CO)C(=O)N[C@@H](Cc1c[nH]c2ccccc12)C(=O)N[C@H](C(=O)N[C@@H](CCCCN)C(=O)N[C@@H](CCCNC(=N)N)C(=O)N[C@@H](CCCCN)C(=O)N[C@@H](CCCNC(=N)N)C(=O)N[C@@H](CCC(N)=O)C(=O)N[C@@H](CCC(N)=O)C(N)=O)[C@@H](C)CC)[C@@H](C)CC)[C@@H](C)O)[C@@H](C)O)C(C)C)C(C)C [Melittin, melittin]","cytotoxicity (hemolysis), in words",[1],high cytotoxicity
CC(C)C[C@H](NC(=O)[C@H](CCCCN)NC(=O)[C@H](CCCCN)NC(=O)[C@H](CC(C)C)NC(=O)[C@H](CC(C)C)NC(=O)[C@H](CCCCN)NC(=O)[C@H](CCCCN)NC(=O)[C@H](CC(C)C)NC(=O)[C@H](CC(C)C)NC(=O)[C@@H]1CCCN1C(=O)[C@@H]1CCCN1C(=O)[C@@H]1CCCN1C(=O)[C@H](CCCCN)NC(=O)[C@H](CCCCN)NC(=O)[C@H](CC(C)C)NC(=O)[C@H](CC(C)C)NC(=O)[C@H](CCCCN)NC(=O)[C@H](CCCCN)NC(=O)[C@H](Cc1c[nH]c2ccccc12)NC(=O)[C@@H](N)CCCCN)C(=O)O [Synthetic peptide (SEQ ID. NO: 2)] (H-KWKKLLKKPPPLLKKLLKKL-OH; N-terminus and C-terminus assumed),"anti-bacterial activity on agar plate, compared to CA-MA",Pseudomonas aeruginosa [2],remarkable anti-bacterial activity
same,"destroyed cells observed with SEM, versus control and CA-MA peptide",Bacillus subtilis [3],much more destroyed cells
same,"destroyed cells observed with SEM, versus control and CA-MA peptide",Pseudomonas aeruginosa [4],much more destroyed cells
same,"DPH-labeled fluorescent materials intercalated at lower position of membrane, compared to CA-MA peptide",Bacillus subtilis [5],15-20%
same,"DPH-labeled fluorescent materials intercalated at lower position of membrane, compared to CA-MA peptide",Pseudomonas aeruginosa [6],15-20%
same,antibiotic activity relative to CA-MA peptide,[7],around 4 times
same,NOAEL,[8],≥ 10 mg/kg
same,"clinical symptoms, weight change, death",SPF SD line rats,"did not cause any specific clinical symptoms, weight change, or death"
same,"hematological tests, biochemical tests of blood, autopsy",SPF SD line rats,No change was observed
same,anti-cancer activity compared with CA-MA peptide,"[9]; SNU 601, 3 days, FIG. 6C",higher than that of CA-MA peptide
same,anti-cancer activity,[9]; over 10 μM concentration,complete restrain of cancer cell growth
same,anti-cancer activity,[9]; to the concentration of 1 μM,did not showed anti-cancer activity
same,anti-cancer activity compared with CA-MA peptide,"[10]; Calu-6, 3 days, FIG. 6A",higher than that of CA-MA peptide
same,anti-cancer activity,[10]; over 10 μM concentration,complete restrain of cancer cell growth
same,anti-cancer activity,[10]; to the concentration of 1 μM,did not showed anti-cancer activity
same,anti-cancer activity compared with CA-MA peptide,"[11]; 3 days, FIG. 6B",higher than that of CA-MA peptide
same,anti-cancer activity,[11]; over 10 μM concentration,complete restrain of cancer cell growth
same,anti-cancer activity,[11]; to the concentration of 1 μM,did not showed anti-cancer activity
same,"cytotoxicity (hemolysis), in words",[1],did not show any cytotoxicity
same,anti-fungal activity relative to CA-MA peptide,[12],about 2 times
same,colonies on LB plate,Bacillus subtilis [13],no colony was found
